This is an account of results in patent publication US8436031B2 (priority 2004, dated 2013).

Structures are written as SMILES.

The target in one series is MarA (Escherichia coli, UniProt P0ACH5). Put plainly: Chemiluminescence DNA binding assay, MarA. As to conditions: E. coli MarA.
A further series addresses SoxS (Escherichia coli, UniProt P0A9E2). Put plainly: Chemiluminescence DNA binding assay, SoxS. Also on record: species or system E. coli. The conditions noted are these: E. coli SoxS; DNA binding.
The next series deals with Rob (Escherichia coli, UniProt P0ACI0). The experiment in a line: Chemiluminescence DNA binding assay, Rob. The conditions noted are these: E. coli Rob.
Another series concerns the target Rma (Salmonella typhimurium, UniProt H9L484). Put plainly: Chemiluminescence DNA binding assay, Rma. On the set-up: species or system S. typhimurium.
The target in another series is SlyA (Salmonella typhimurium, UniProt P40676). The experiment in a line: Chemiluminescence DNA binding assay, SlyA (MarR protein control). On the set-up: species or system S. typhimurium.
A further series deals with PqrA (Proteus mirabilis, UniProt B4ETM4). The experiment in a line: Chemiluminescence DNA binding assay, PqrA. As to conditions: P. mirabilis PqrA.
The next series deals with ExsA (Pseudomonas aeruginosa, UniProt P26993). Put plainly: Chemiluminescence DNA binding assay, ExsA. On the set-up: species or system P. aeruginosa.
The next series addresses LcrF (VirF) (Yersinia pseudotuberculosis, UniProt Q663J0). Put plainly: biochemical. Format: binding, Y. pseudotuberculosis.
Series [1] is described as follows: In vivo toxicity, repeat dose experiments. As to conditions: mice; subcutaneous 25 mg/Kg, two doses on day 1, single dose on days 2-5. The protocol:
The in vivo toxicity of Mar inhibitors ATB, BAB, BAF, BBP and BBS were investigated in repeat dose experiments. Mice were given two subcutaneous doses (25 mg/Kg) of a Mar inhibitor on day 1 and a single dose of the compound on days 2-5.

Sequence of Rob (P0ACI0 whole entry): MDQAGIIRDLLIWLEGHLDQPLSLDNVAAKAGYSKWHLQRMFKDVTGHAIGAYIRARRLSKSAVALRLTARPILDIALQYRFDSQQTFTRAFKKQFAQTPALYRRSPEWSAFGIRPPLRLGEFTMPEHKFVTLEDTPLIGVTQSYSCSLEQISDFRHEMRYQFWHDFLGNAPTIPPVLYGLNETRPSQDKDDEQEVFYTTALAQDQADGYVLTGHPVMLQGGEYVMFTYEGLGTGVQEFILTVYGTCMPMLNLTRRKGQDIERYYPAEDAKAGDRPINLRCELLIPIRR
Sequence of SlyA (P40676 whole entry): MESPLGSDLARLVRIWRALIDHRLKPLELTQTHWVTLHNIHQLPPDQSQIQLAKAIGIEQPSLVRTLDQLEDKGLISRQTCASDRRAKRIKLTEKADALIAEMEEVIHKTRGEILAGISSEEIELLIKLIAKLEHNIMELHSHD
Sequence of Rma (H9L484 whole entry): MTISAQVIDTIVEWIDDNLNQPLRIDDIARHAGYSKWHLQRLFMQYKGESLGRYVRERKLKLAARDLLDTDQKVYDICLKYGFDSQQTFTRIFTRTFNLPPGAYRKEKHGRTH
Sequence of ExsA (P26993 whole entry): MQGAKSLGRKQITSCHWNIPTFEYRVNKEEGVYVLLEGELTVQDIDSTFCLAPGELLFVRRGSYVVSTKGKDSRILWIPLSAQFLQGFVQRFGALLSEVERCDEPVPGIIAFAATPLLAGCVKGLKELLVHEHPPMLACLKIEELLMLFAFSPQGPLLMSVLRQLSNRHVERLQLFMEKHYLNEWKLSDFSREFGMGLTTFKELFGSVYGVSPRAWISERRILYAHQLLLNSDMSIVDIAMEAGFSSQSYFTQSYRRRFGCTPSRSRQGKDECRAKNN
Sequence of SoxS (P0A9E2 whole entry): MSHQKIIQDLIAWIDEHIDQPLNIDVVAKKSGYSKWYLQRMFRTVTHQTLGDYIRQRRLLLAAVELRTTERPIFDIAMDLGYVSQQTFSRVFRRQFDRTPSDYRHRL
Sequence of LcrF (VirF) (Q663J0 1-271): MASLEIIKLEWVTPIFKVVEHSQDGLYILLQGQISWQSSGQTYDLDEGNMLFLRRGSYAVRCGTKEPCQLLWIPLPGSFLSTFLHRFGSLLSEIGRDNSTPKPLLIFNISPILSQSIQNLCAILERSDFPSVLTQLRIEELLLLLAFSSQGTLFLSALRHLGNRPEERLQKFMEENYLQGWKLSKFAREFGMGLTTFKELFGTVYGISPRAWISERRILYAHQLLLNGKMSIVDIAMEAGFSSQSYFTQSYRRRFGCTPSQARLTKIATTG
Sequence of MarA (P0ACH5 whole entry): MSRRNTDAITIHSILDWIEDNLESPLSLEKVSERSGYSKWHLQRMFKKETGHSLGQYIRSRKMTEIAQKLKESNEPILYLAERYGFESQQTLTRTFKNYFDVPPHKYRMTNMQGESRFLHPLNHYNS
Sequence of PqrA (B4ETM4 entry or part of it): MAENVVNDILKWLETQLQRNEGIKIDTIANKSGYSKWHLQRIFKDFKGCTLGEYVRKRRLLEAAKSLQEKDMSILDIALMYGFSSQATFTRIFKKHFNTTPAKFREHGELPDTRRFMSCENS

Take `O=[N+]([O-])c1ccc2nc(-c3ccc(-c4ccccc4)o3)n(O)c2c1` [ARD]: the EC50 – broadly, the concentration that produces a half-maximal response – at MarA is 11.7 µM; on SoxS it was 8.3 µM; on Rob, 28 µM; at Rma, 17 µM; at SlyA it was 11.9 µM; on PqrA, 13.6 µM. On ExsA, this molecule came in with an EC50 of 15.6 µM.
As to `O=C(Nc1ccc(-c2nc3ccc([N+](=O)[O-])cc3n2O)cc1)c1ccc(F)cc1` [ASU], the EC50 amounted to 3 µM on SoxS; 4.7 µM at Rob; 4.9 µM at Rma; 51 µM at SlyA; 4 µM at ExsA; 17.7 µM on LcrF (VirF).
For the molecule `O=C(Nc1ccc(-c2nc3ccc([N+](=O)[O-])cc3n2O)cc1)c1cccc(Cl)c1` [ASX], the EC50 at SoxS was 4.9 µM; at Rob, 3.4 µM; at Rma, 3.5 µM; on SlyA, 21.7 µM; on ExsA, 2.5 µM.
On to `Cc1ccc(C(=O)Nc2ccc(-c3nc4ccc([N+](=O)[O-])cc4n3O)cc2)cc1` [ATB], for which the EC50 at SoxS stood at 2.7 µM; at Rob it was 7.4 µM; on ExsA, 4 µM; on LcrF (VirF), 15.5 µM. Moreover, the in vivo toxicity entry in series [1] is reported as “No overt signs of toxicity”.
Regarding `CN(C)c1ccc(C(=O)Nc2ccc(-c3nc4ccc([N+](=O)[O-])cc4n3O)cc2)cc1` [ATE], the 50% effective concentration (EC50) was determined as 1.2 µM on MarA; 0.82 µM at SoxS; 1.3 µM at Rob; 1.8 µM on Rma; 14.3 µM on SlyA; 1.4 µM at PqrA. Also, the EC50 at ExsA is 1.9 µM; on LcrF (VirF) it was 36.5 µM.
Regarding `N#Cc1ccc(C(=O)Nc2ccc(-c3nc4ccc([N+](=O)[O-])cc4n3O)cc2)cc1` [BAB], in series [1], the in vivo toxicity result is “No overt signs of toxicity”.
Same read-out and setting: for `CC(=O)c1ccc(C(=O)Nc2ccc(-c3nc4ccc([N+](=O)[O-])cc4n3O)cc2)cc1` [BAF] the value was “No overt signs of toxicity”.
Molecule `O=C(/C=C/c1ccc(F)cc1)Nc1ccc(-c2nc3ccc([N+](=O)[O-])cc3n2O)cc1` [BBP] registered a concentration for a half-maximal effect (EC50) on LcrF (VirF) of 7.1 µM. In addition, the in vivo toxicity result in [1] is given as “No overt signs of toxicity”.
`O=C(Nc1ccc(-c2nc3ccc([N+](=O)[O-])cc3n2O)cc1)c1cccc(F)c1` [BBS] had an EC50 on LcrF (VirF) of 29 µM. In addition, the in vivo toxicity result in series [1] was “No overt signs of toxicity”.
